Reference: PubChem BioAssay (NCI)
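All cell lines were grown in 96-well plates and treated with compound for 48 hours. TGI: total growth inhibition.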

Experiments:
Experiment in all cases: NCI tumour cell line growth inhibition, 48 h
[1] = tested on: 786-0 renal
[2] = tested on: A549 NSCLC
[3] = tested on: ACHN renal
[4] = tested on: CAKI-1 renal
[5] = tested on: CCRF-CEM leukemia
[6] = tested on: COLO 205 colon
[7] = tested on: DLD-1 colon
[8] = tested on: DMS 114 small cell lung
[9] = tested on: EKVX NSCLC
[10] = tested on: HCC-2998 colon
[11] = tested on: HCT-116 colon
[12] = tested on: HCT-15 colon
[13] = tested on: HL-60(TB) leukemia
[14] = tested on: HOP-62 NSCLC
[15] = tested on: HOP-92 NSCLC
[16] = tested on: HT29 colon
[17] = tested on: IGROV1 ovarian
[18] = tested on: K-562 leukemia
[19] = tested on: KM12 colon
[20] = tested on: KM20L2 colon
[21] = tested on: LOX IMVI melanoma
[22] = tested on: LXFL 529 NSCLC
[23] = tested on: M14 melanoma
[24] = tested on: M19-MEL melanoma
[25] = tested on: MALME-3M melanoma
[26] = tested on: MOLT-4 leukemia
[27] = tested on: NCI-H226 lung
[28] = tested on: NCI-H23 lung
[29] = tested on: NCI-H460 lung
[30] = tested on: OVCAR-3 ovarian
[31] = tested on: OVCAR-4 ovarian
[32] = tested on: OVCAR-5 ovarian
[33] = tested on: OVCAR-8 ovarian
[34] = tested on: RPMI-8226 leukemia
[35] = tested on: RXF 393 renal
[36] = tested on: RXF-631 renal
[37] = tested on: SF-268 CNS
[38] = tested on: SF-295 CNS
[39] = tested on: SF-539 CNS
[40] = tested on: SK-MEL-2 melanoma
[41] = tested on: SK-MEL-28 melanoma
[42] = tested on: SK-MEL-5 melanoma
[43] = tested on: SK-OV-3 ovarian
[44] = tested on: SN12C renal
[45] = tested on: SNB-78 CNS
[46] = tested on: SR leukemia
[47] = tested on: SW-620 colon
[48] = tested on: TK-10 renal
[49] = tested on: U251 CNS
[50] = tested on: UACC-257 melanoma
[51] = tested on: UACC-62 melanoma
[52] = tested on: XF 498 CNS
[53] = tested on: DMS 273 small cell lung
[54] = tested on: NCI-H522 lung
[55] = tested on: SNB-19 CNS
[56] = tested on: SNB-75 CNS
[57] = tested on: UO-31 renal
[58] = tested on: A498 renal
[59] = tested on: HOP-18 NSCLC

## O=NN(CCCl)C(=O)NCc1ccc[n+]([O-])c1
[1]
  TGI: > 100 µM
[2]
  TGI: > 100 µM
[3]
  TGI: > 100 µM
[4]
  TGI: > 100 µM
[5]
  TGI: > 100 µM
[6]
  TGI: > 100 µM
[7]
  TGI: > 100 µM
[8]
  TGI: > 100 µM
[9]
  TGI: > 100 µM
[10]
  TGI: > 100 µM
[11]
  TGI: > 100 µM
[12]
  TGI: > 100 µM
[13]
  TGI: > 100 µM
[14]
  TGI: > 100 µM
[15]
  TGI: > 100 µM
[16]
  TGI: > 100 µM
[17]
  TGI: > 100 µM
[18]
  TGI: > 100 µM
[19]
  TGI: > 100 µM
[20]
  TGI: > 100 µM
[21]
  TGI: > 100 µM
[22]
  TGI: > 100 µM
[23]
  TGI: > 100 µM
[24]
  TGI: > 100 µM
[25]
  TGI: > 100 µM
[26]
  TGI: > 100 µM
[27]
  TGI: > 100 µM
[28]
  TGI: > 100 µM
[29]
  TGI: > 100 µM
[30]
  TGI: > 100 µM
[31]
  TGI: > 100 µM
[32]
  TGI: > 100 µM
[33]
  TGI: > 100 µM
[34]
  TGI: > 100 µM
[35]
  TGI: > 100 µM
[36]
  TGI: > 100 µM
[37]
  TGI: > 100 µM
[38]
  TGI: > 100 µM
[39]
  TGI: > 100 µM
[40]
  TGI: > 100 µM
[41]
  TGI: > 100 µM
[42]
  TGI: > 100 µM
[43]
  TGI: > 100 µM
[44]
  TGI: > 100 µM
[45]
  TGI: > 100 µM
[46]
  TGI: > 100 µM
[47]
  TGI: > 100 µM
[48]
  TGI: > 100 µM
[49]
  TGI: > 100 µM
[50]
  TGI: > 100 µM
[51]
  TGI: > 100 µM
[52]
  TGI: > 100 µM

## COc1cccc(/C=C\c2cc(OC)c(OC)c(OC)c2)c1
[1]
  TGI: 71.5 µM
[2]
  TGI: > 100 µM
[3]
  TGI: > 100 µM
[4]
  TGI: 56.4 µM
[5]
  TGI: 22.8 µM
[6]
  TGI: 17.3 µM
[7]
  TGI: > 100 µM
[8]
  TGI: 67.3 µM
[53]
  TGI: 39.6 µM
[9]
  TGI: > 100 µM
[10]
  TGI: 69.5 µM
[11]
  TGI: > 100 µM
[12]
  TGI: > 100 µM
[14]
  TGI: > 100 µM
[15]
  TGI: > 100 µM
[16]
  TGI: 67.9 µM
[17]
  TGI: > 100 µM
[18]
  TGI: 43.7 µM
[19]
  TGI: > 100 µM
[20]
  TGI: 1.56 µM
[22]
  TGI: > 100 µM
[23]
  TGI: > 100 µM
[24]
  TGI: > 100 µM
[25]
  TGI: 42.8 µM
[26]
  TGI: 18 µM
[27]
  TGI: 83.9 µM
[28]
  TGI: 9.4 µM
[29]
  TGI: > 100 µM
[54]
  TGI: 1.58 µM
[30]
  TGI: 79.1 µM
[31]
  TGI: > 100 µM
[32]
  TGI: 63.6 µM
[33]
  TGI: > 100 µM
[34]
  TGI: 42.3 µM
[36]
  TGI: > 100 µM
[37]
  TGI: > 100 µM
[39]
  TGI: > 100 µM
[41]
  TGI: 7.15 µM
[43]
  TGI: > 100 µM
[44]
  TGI: > 100 µM
[55]
  TGI: > 100 µM
[56]
  TGI: 20.4 µM
[45]
  TGI: 58.9 µM
[46]
  TGI: 27.5 µM
[47]
  TGI: > 100 µM
[49]
  TGI: 23 µM
[50]
  TGI: 47.3 µM
[51]
  TGI: > 100 µM
[57]
  TGI: 33 µM
[52]
  TGI: 35.8 µM

## CN(OC(=O)CC(=O)c1ccccc1)C(=O)Cc1ccccc1
[1]
  TGI: > 100 µM
[58]
  TGI: > 100 µM
[2]
  TGI: > 100 µM
[3]
  TGI: > 100 µM
[4]
  TGI: > 100 µM
[5]
  TGI: > 100 µM
[6]
  TGI: > 100 µM
[7]
  TGI: > 100 µM
[8]
  TGI: > 100 µM
[9]
  TGI: > 100 µM
[11]
  TGI: > 100 µM
[12]
  TGI: > 100 µM
[13]
  TGI: > 100 µM
[14]
  TGI: > 100 µM
[16]
  TGI: > 100 µM
[17]
  TGI: > 100 µM
[19]
  TGI: > 100 µM
[20]
  TGI: > 100 µM
[21]
  TGI: > 100 µM
[22]
  TGI: > 100 µM
[23]
  TGI: > 100 µM
[24]
  TGI: > 100 µM
[25]
  TGI: > 100 µM
[27]
  TGI: > 100 µM
[28]
  TGI: > 100 µM
[29]
  TGI: > 100 µM
[54]
  TGI: > 100 µM
[30]
  TGI: > 100 µM
[31]
  TGI: > 100 µM
[32]
  TGI: > 100 µM
[33]
  TGI: > 100 µM
[34]
  TGI: > 100 µM
[36]
  TGI: > 100 µM
[37]
  TGI: > 100 µM
[38]
  TGI: > 100 µM
[39]
  TGI: > 100 µM
[40]
  TGI: > 100 µM
[42]
  TGI: > 100 µM
[43]
  TGI: > 100 µM
[44]
  TGI: > 100 µM
[55]
  TGI: > 100 µM
[45]
  TGI: > 100 µM
[46]
  TGI: > 100 µM
[47]
  TGI: > 100 µM
[48]
  TGI: > 100 µM
[49]
  TGI: > 100 µM
[50]
  TGI: > 100 µM
[51]
  TGI: > 100 µM
[57]
  TGI: > 100 µM

## CN(C)CCN1N=Nc2cccc3cccc1c23
[1]
  TGI: > 100 µM
[58]
  TGI: > 100 µM
[2]
  TGI: > 100 µM
[3]
  TGI: > 100 µM
[4]
  TGI: > 100 µM
[5]
  TGI: > 78.8 µM
[6]
  TGI: > 100 µM
[7]
  TGI: > 100 µM
[8]
  TGI: > 100 µM
[53]
  TGI: 87.7 µM
[9]
  TGI: > 100 µM
[10]
  TGI: > 100 µM
[11]
  TGI: > 100 µM
[12]
  TGI: > 100 µM
[13]
  TGI: > 70.8 µM
[59]
  TGI: > 100 µM
[14]
  TGI: > 100 µM
[15]
  TGI: > 100 µM
[16]
  TGI: > 100 µM
[17]
  TGI: > 100 µM
[18]
  TGI: > 100 µM
[19]
  TGI: > 100 µM
[20]
  TGI: > 100 µM
[21]
  TGI: > 100 µM
[22]
  TGI: > 100 µM
[23]
  TGI: > 100 µM
[25]
  TGI: > 100 µM
[26]
  TGI: > 87.3 µM
[27]
  TGI: > 100 µM
[28]
  TGI: > 100 µM
[29]
  TGI: > 100 µM
[54]
  TGI: > 100 µM
[30]
  TGI: > 100 µM
[31]
  TGI: > 100 µM
[32]
  TGI: > 100 µM
[33]
  TGI: > 100 µM
[34]
  TGI: > 64.3 µM
[36]
  TGI: > 100 µM
[37]
  TGI: > 100 µM
[38]
  TGI: > 100 µM
[39]
  TGI: > 100 µM
[40]
  TGI: > 100 µM
[41]
  TGI: > 100 µM
[42]
  TGI: > 100 µM
[43]
  TGI: > 100 µM
[44]
  TGI: > 100 µM
[55]
  TGI: > 100 µM
[56]
  TGI: > 100 µM
[46]
  TGI: 40.2 µM
[47]
  TGI: > 53.6 µM
[48]
  TGI: > 100 µM
[49]
  TGI: > 100 µM
[50]
  TGI: > 100 µM
[51]
  TGI: > 100 µM
[57]
  TGI: > 100 µM
[52]
  TGI: > 100 µM
